For one data set, the system named is DU145 cells. Description: Antiproliferative assay in DU145 cells, WST-1 cell proliferation assay, 96 hours (GI50). The format is cell-based. The method, boiled down: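 DU145 cells seeded at 5000 cells/well, treated with […] compound or vehicle for 96 h. Viability read by WST-1, expressed as percent of mean control, GI50 derived; triplicate experiments.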

Setting [1] is: Homo sapiens, DU-145, 96 hours post-treatment, triplicate.
Setting [2] is: 96 hours post-treatment, 50% growth inhibition, read-out: DU-145 GI50.
Where [3] appears, read: Homo sapiens, DU-145, 96 hours post-treatment, 50% growth inhibition.

Structures are written as SMILES. Like-named read-outs stand apart in the source and are kept apart here.

One may read the melting point as the temperature of the solid-liquid transition. As a reminder, the GI50 is the concentration giving 50% growth inhibition. Turning to `COc1cc2c(cc1OCc1ccccc1)CCN(Cc1ccccc1)C2` [compound 2, 2-Benzyl-6-benzyloxy-7-methoxy-1,2,3,4-tetrahydroisoquinoline], the melting point fell in the range of 97 to 98 °C. The same compound registered a GI50 in the data set on DU145 cells (setting [1]) of 50 to 100 µM.

Take `COc1ccc(CN2CCc3cc(OCc4ccccc4)c(OC)cc3C2)cc1` [compound 3, 6-Benzyloxy-7-methoxy-2-(4-methoxybenzyl)-1,2,3,4-tetrahydroisoquinoline]: the melting point was 96 to 97 °C. In addition, the GI50 in the data set on DU145 cells (setting [1]) is 50 to 100 µM.

On to `COc1cccc(CN2CCc3cc(OCc4ccccc4)c(OC)cc3C2)c1` [compound 4, 6-Benzyloxy-7-methoxy-2-(3-methoxybenzyl)-1,2,3,4-tetrahydroisoquinoline], for which the melting point lay within 71 to 72 °C. This compound also gave a GI50 in the data set with DU145 cells (setting [1]) of 50 to 100 µM.

Compound `COc1ccccc1CN1CCc2cc(OCc3ccccc3)c(OC)cc2C1` [compound 5, 6-Benzyloxy-7-methoxy-2-(2-methoxybenzyl)-1,2,3,4-tetrahydroisoquinoline] gave a melting point of 85 to 86 °C. The compound further gave a GI50 in the data set with DU145 cells (setting [1]) of 10 to 50 µM.

In turn, `COc1cc(CN2CCc3cc(OCc4ccccc4)c(OC)cc3C2)cc(OC)c1` [compound 6, 6-Benzyloxy-2-(3,5-dimethoxybenzyl)-7-methoxy-1,2,3,4-tetrahydroisoquinoline] came in with a melting point of 95 to 96 °C. Besides, the GI50 in the data set on DU145 cells (setting [1]) was more than 100 µM.

In turn, `COc1cc2c(cc1OCc1ccccc1)CCN(Cc1cccc(C)c1)C2` [compound 7, 6-Benzyloxy-7-methoxy-2-(3-methylbenzyl)-1,2,3,4-tetrahydroisoquinoline] gave a melting point of 81 to 82 °C. In addition, in the data set with DU145 cells (setting [1]), the GI50 is more than 100 µM.

As to `COc1cc2c(cc1OCc1ccccc1)CCN(Cc1cccc(Oc3ccccc3)c1)C2` [compound 8, 6-Benzyloxy-7-methoxy-2-(3-phenoxybenzyl)-1,2,3,4-tetrahydroisoquinoline], the melting point was in the range of 111 to 112 °C. The compound also yielded a GI50 in the data set with DU145 cells (setting [1]) of more than 100 µM.

As for `COc1cc(OC)c(OC)cc1CN1CCc2cc(OCc3ccccc3)c(OC)cc2C1` [compound 17, 6-Benzyloxy-7-methoxy-2-(2,4,5-trimethoxybenzyl)-1,2,3,4-tetrahydroisoquinoline], the melting point fell in the range of 110 to 111 °C. In the data set with DU145 cells (setting [1]), the GI50 was 10 to 50 µM.

Turning to `COc1cc2c(cc1OCc1ccccc1)CCN(Cc1cc(OC)c(OC)c(OC)c1)C2` [compound 19, 6-Benzyloxy-7-methoxy-2-(3,4,5-trimethoxybenzyl)-1,2,3,4-tetrahydroisoquinoline], the melting point lay in the range of 144 to 145 °C. The compound also yielded a GI50 with DU145 cells (setting [1]) of 10 to 50 µM.

In turn, `COc1cc2c(cc1OCc1ccccc1)CCN(Cc1cccc(OC)c1OC)C2` [compound 20, 6-Benzyloxy-7-methoxy-2-(2,3-dimethoxybenzyl)-1,2,3,4-tetrahydroisoquinoline] displayed a melting point of 106 to 107 °C. In the data set with DU145 cells (setting [1]), this compound registered a GI50 of 10 to 50 µM.

`COc1cc2c(cc1OCc1ccccc1)CCN(Cc1cccc(F)c1)C2` [compound 22, 6-Benzyloxy-2-(3-fluorobenzyl)-7-methoxy-1,2,3,4-tetrahydroisoquinoline]: the melting point was in the range of 77 to 79.5 °C. The GI50 in the data set with DU145 cells (setting [1]) is more than 100 µM.

As to `COc1cc2c(cc1OCc1ccccc1)CCN(Cc1cccc(N)c1)C2` [compound 34, 2-(3-Aminobenzyl)-6-(benzyloxy)-7-methoxy-1,2,3,4-tetrahydroisoquinoline], the melting point fell in the range of 114 to 115 °C. In the data set with DU145 cells (setting [1]), this compound yielded a GI50 of more than 100 µM.

The compound `COc1cc2c(cc1O)CCN(Cc1ccccc1)C2` [compound 38, 2-Benzyl-6-hydroxy-7-methoxy-1,2,3,4-tetrahydroisoquinoline] came in with a melting point of 134 to 135 °C. Moreover, the GI50 in the data set with DU145 cells (setting [1]) was more than 100 µM.

`COc1ccc(CN2CCc3cc(O)c(OC)cc3C2)cc1` [compound 39, 6-Hydroxy-7-methoxy-2-(4-methoxybenzyl)-1,2,3,4-tetrahydroisoquinoline] registered a melting point of 162 to 163 °C. This compound showed a GI50 in the data set with DU145 cells (setting [1]) of more than 100 µM.

The compound `COc1cccc(CN2CCc3cc(O)c(OC)cc3C2)c1` [compound 40, 6-Hydroxy-7-methoxy-2-(3-methoxybenzyl)-1,2,3,4-tetrahydroisoquinoline] displayed a melting point of 161 to 162 °C. Besides, the GI50 in the data set with DU145 cells (setting [1]) is more than 100 µM.

In turn, `COc1cc2c(cc1O)CCN(Cc1ccccc1OC)C2` [compound 41, 6-Hydroxy-7-methoxy-2-(2-methoxybenzyl)-1,2,3,4-tetrahydroisoquinoline] had a melting point of 128 to 129 °C. The GI50 in the data set with DU145 cells (setting [1]) was more than 100 µM.

`COc1cc(CN2CCc3cc(O)c(OC)cc3C2)cc(OC)c1` [compound 42, 6-Hydroxy-2-(3,5-dimethoxybenzyl)-7-methoxy-1,2,3,4-tetrahydroisoquinoline] displayed a melting point of 127 to 128 °C. In addition, the GI50 in the data set on DU145 cells (setting [1]) was in the range of 50 to 100 µM.

Regarding `COc1cc2c(cc1O)CCN(Cc1cccc(Oc3ccccc3)c1)C2` [compound 43, 6-Hydroxy-7-methoxy-2-(3-phenoxybenzyl)-1,2,3,4-tetrahydroisoquinoline], the melting point fell in the range of 139 to 140 °C. The same compound displayed a GI50 with DU145 cells (setting [1]) of 10 to 50 µM.

Compound `COc1cc2c(cc1O)CCN(Cc1cc(OC)c(OC)c(OC)c1)C2` [compound 54, 6-Hydroxy-7-methoxy-2-(3,4,5-trimethoxybenzyl)-1,2,3,4-tetrahydroisoquinoline] yielded a melting point of 170 to 171 °C. In the data set on DU145 cells (setting [1]), the GI50 was less than 10 µM.

Compound `COc1ccc(OC)c(CN2CCc3cc(O)c(OC)cc3C2)c1` [compound 55, 6-Hydroxy-7-methoxy-2-(2,5-dimethoxybenzyl)-1,2,3,4-tetrahydroisoquinoline] displayed a melting point of 104 to 105 °C. In the data set on DU145 cells (setting [1]), the GI50 lay within 50 to 100 µM.

`COc1cc2c(cc1O)CCN(Cc1cccc(OC)c1OC)C2` [compound 56, 6-Hydroxy-7-methoxy-2-(2,3-dimethoxybenzyl)-1,2,3,4-tetrahydroisoquinoline] returned a melting point of 101 to 102 °C. For the same compound, the GI50 with DU145 cells (setting [1]) was more than 100 µM.

Compound `COc1cc2c(cc1O)CCN(Cc1ccc(OC)c(OC)c1)C2` [compound 57, 6-Hydroxy-7-methoxy-2-(3,4-dimethoxybenzyl)-1,2,3,4-tetrahydroisoquinoline] returned a melting point of 146 to 147 °C. This compound registered a GI50 in the data set on DU145 cells (setting [1]) of more than 100 µM.

For the compound `COc1cc2c(cc1O)CCN(Cc1ccc(OC)c(OC)c1OC)C2` [compound 58, 6-Hydroxy-7-methoxy-2-(2,3,4-trimethoxybenzyl)-1,2,3,4-tetrahydroisoquinoline], the melting point was in the range of 65 to 66 °C. In the data set with DU145 cells (setting [1]), the GI50 is more than 100 µM.

Regarding `COc1cc2c(cc1O)CCN(Cc1cc(OC)c(OC)cc1OC)C2` [compound 59, 6-Hydroxy-7-methoxy-2-(2,4,5-trimethoxybenzyl)-1,2,3,4-tetrahydroisoquinoline], the melting point was in the range of 152 to 153 °C. Moreover, the GI50 in the data set with DU145 cells (setting [1]) was less than 10 µM.

In turn, `COc1cc2c(cc1O)CCN(Cc1cccc(F)c1)C2` [compound 60, 2-(3-Fluorobenzyl)-6-hydroxy-7-methoxy-1,2,3,4-tetrahydroisoquinoline] gave a melting point of 125 to 127 °C. Further, the GI50 in the data set with DU145 cells (setting [1]) is more than 100 µM.

Take `COc1cc2c(cc1O)CCN(Cc1cccc(OC(C)C)c1)C2` [compound 61, 2-(3-Isopropoxybenzyl)-6-hydroxy-7-methoxy-1,2,3,4-tetrahydroisoquinoline]: the melting point fell in the range of 143 to 146 °C. Besides, the GI50 in the data set with DU145 cells (setting [1]) is more than 100 µM.

The compound `CCOc1cccc(CN2CCc3cc(O)c(OC)cc3C2)c1` [compound 63, 2-(3-Ethoxybenzyl)-6-hydroxy-7-methoxy-1,2,3,4-tetrahydroisoquinoline] had a melting point of 105 to 106 °C. Also, in the data set with DU145 cells (setting [1]), the GI50 is more than 100 µM.

For the compound `COc1cc2c(cc1O)CCN(Cc1cccc(C#N)c1)C2` [compound 64, 2-(3-Cyanobenzyl)-6-hydroxy-7-methoxy-1,2,3,4-tetrahydroisoquinoline], the melting point was in the range of 113 to 155 °C. In the data set with DU145 cells (setting [1]), this compound displayed a GI50 of more than 100 µM.

For the compound `COc1cc2c(cc1O)CCN(Cc1ccc(C#N)cc1)C2` [compound 65, 2-(4-Cyanobenzyl)-6-hydroxy-7-methoxy-1,2,3,4-tetrahydroisoquinoline], the melting point is 165 to 166.5 °C. The compound also registered a GI50 with DU145 cells (setting [1]) of more than 100 µM.

On to `COc1cc2c(cc1OS(N)(=O)=O)CCN(S(=O)(=O)c1cccc(Cl)c1)C2=O` [compound 207, 2-(3-Chloro-benzenesulfonyl)-7-methoxy-6-O-sulfamoyl-3,4-dihydro-2H-isoquinolin-1-one], for which, in the data set on DU145 cells (setting [2]), the GI50 is more than 100 µM.

Consider `COc1cccc(CN2Cc3cc(OC)c(OS(N)(=O)=O)cc3CC2C)c1` (stereo not shown) [compound 220, 2-(3-Methoxybenzyl)-1,2,3,4-tetrahydro-7-methoxy-3-methylisoquinolin-6-O-sulfamate], for which the GI50 with DU145 cells (setting [2]) is less than 10 µM.

In the case of `COc1cc(CN2Cc3cc(OC)c(OS(N)(=O)=O)cc3CC2C)cc(OC)c1` (stereo not shown) [compound 221, 2-(3,5-dimethoxy-benzyl)-7-methoxy-3-methyl-1,2,3,4-tetrahydro-isoquinolin-6-O-sulfamate], in the data set on DU145 cells (setting [2]), the GI50 is less than 10 µM.

In the case of `COc1cc2c(cc1OS(N)(=O)=O)CC(C)N(Cc1cc(OC)c(OC)c(OC)c1)C2` (stereo not shown) [compound 222, 2-(3,4,5-Trimethoxybenzyl)-1,2,3,4-tetrahydro-7-methoxy-3-methylisoquinolin-6-O-sulfamate], the GI50 with DU145 cells (setting [2]) is less than 10 µM.

`COc1cccc(CN2Cc3cc(OC)c(OS(N)(=O)=O)cc3CC2(C)C)c1` [compound 230, 2-(3-Methoxybenzyl)-1,2,3,4-tetrahydro-7-methoxy-3,3-dimethylisoquinolin-6-yl sulfamate] displayed a GI50 in the data set with DU145 cells (setting [3]) of more than 100 µM.

`COc1cc2c(cc1OS(N)(=O)=O)CC(C)(C)N(Cc1cc(OC)c(OC)c(OC)c1)C2` [compound 231, 2-(3,4,5-Trimethoxybenzyl)-1,2,3,4-tetrahydro-7-methoxy-3,3-dimethylisoquinolin-6-yl sulfamate] had a GI50 in the data set with DU145 cells (setting [3]) of more than 100 µM.

The values above are taken from patent US8394825B2, “Compound” (Sterix Limited, priority 2007, dated 2013).
